Values of other authors, collected in PubChem BioAssay AID1259409 (Chemical Carcinogenesis Research Information System (CCRIS), 2018).
Values joined by “and” are separate entries in the source; they are usually repeats but may differ in a detail not shown here. Equal values may be shown once.

Test system: rodent chemically induced tumor inhibition, incidence and multiplicity
Assay: CCRIS tumor inhibitor studies
Details: Dose [Inhibitor]: 0

N#C[Se]Cc1ccc(C[Se]C#N)cc1
tumour outcome (control, treated, inhibition, significance) (Carcinogen: 4(Methylnitrosamino)-1-(3-pyridyl)-1-butanone (NNK) (62339-61-1), 10 ppm as Se in diet, wks 6 to 32, study duration 26 wk, Route [Inhibitor]: Oral, Species: Mouse, Strain/Sex: A/J / Female, Target Tissue: Type of Lesion: Lung: Tumor, Dose [Carcinogen]: 3 umol once a wk for 8 wk beginning at wk 6 (total of 24 umol/mouse), study duration 26 wk): 90%, 20% (78% reduction), p<0.001 and 96%, 68% (30% reduction), p<0.01 | tumour outcome (control, treated, inhibition, significance) (Carcinogen: 4-(METHYLNITROSAMINO)-1-(3-PYRIDYL)-1-BUTANONE, 64091-91-4, 0.0005% IN DIET FOR 17 WK BEGINNING 1 WK PRIOR TO CARCINOGEN DOSE (STUDY DURATION: 17 WK), Route [Inhibitor]: ORAL, Species: MOUSE, Strain/Sex: STRAIN-A/FEMALE, Target Tissue: Type of Lesion: LUNG: ADENOMA, Dose [Carcinogen]: 10 UMOL IN 0.1 ML SALINE ONCE, Promoter: NONE USED): 100%, 100%, 0%, not significant | tumour outcome (control, treated, inhibition, significance) (Carcinogen: 4-(METHYLNITROSAMINO)-1-(3-PYRIDYL)-1-BUTANONE, 64091-91-4, 5 PPM IN DIET BEGINNING 1 WK PRIOR TO CARCINOGEN TREATMENT AND CONTINUING FOR 16 WK POST CARCINOGEN TREATMENT (STUDY, Route [Inhibitor]: ORAL, Species: MOUSE, Strain/Sex: STRAIN-A/FEMALE, Target Tissue: Type of Lesion: LUNG: ADENOMA, Dose [Carcinogen]: 10 UMOL IN 0.1 ML SALINE, Promoter: NONE USED): 100%, 100%, 0%, not significant | tumour outcome (control, treated, inhibition, significance) (Carcinogen: 4-(METHYLNITROSAMINO)-1-(3-PYRIDYL)-1-BUTANONE, 64091-91-4, 7.5 PPM IN DIET FOR 3 WK BEGINNING 1 WK PRIOR TO CARCINOGEN DOSE (STUDY DURATION: 18 WK), Route [Inhibitor]: ORAL, Species: MOUSE, Strain/Sex: STRAIN-A/FEMALE, Target Tissue: Type of Lesion: LUNG: TUMOR, Dose [Carcinogen]: 10 UMOL IN 0.1 ML SALINE ONCE, Promoter: NONE USED): 100%, 80%, 20%, not significant | tumour outcome (control, treated, inhibition, significance) (Carcinogen: 4-(METHYLNITROSAMINO)-1-(3-PYRIDYL)-1-BUTANONE, 64091-91-4, 7.5 PPM IN DIET FOR 15 WK BEGINNING 1 WK POST CARCINOGEN DOSE (STUDY DURATION: 18 WK), Route [Inhibitor]: ORAL, Species: MOUSE, Strain/Sex: STRAIN-A/FEMALE, Target Tissue: Type of Lesion: LUNG: TUMOR, Dose [Carcinogen]: 10 UMOL IN 0.1 ML SALINE ONCE, Promoter: NONE USED): 100%, 96%, 4%, not significant | tumour outcome (control, treated, inhibition, significance) (Carcinogen: 4-(METHYLNITROSAMINO)-1-(3-PYRIDYL)-1-BUTANONE, 64091-91-4, 10 PPM IN DIET BEGINNING 1 WK PRIOR TO CARCINOGEN TREATMENT AND CONTINUING FOR 16 WK POST CARCINOGEN TREATMENT (STUDY, Route [Inhibitor]: ORAL, Species: MOUSE, Strain/Sex: STRAIN-A/FEMALE, Target Tissue: Type of Lesion: LUNG: ADENOMA, Dose [Carcinogen]: 10 UMOL IN 0.1 ML SALINE, Promoter: NONE USED): 100%, 90%, 10%, not significant | tumour outcome (control, treated, inhibition, significance) (Carcinogen: 4-(METHYLNITROSAMINO)-1-(3-PYRIDYL)-1-BUTANONE, 64091-91-4, 15 PPM IN DIET BEGINNING 1 WK PRIOR TO CARCINOGEN TREATMENT AND CONTINUING FOR 16 WK POST CARCINOGEN TREATMENT (STUDY, Route [Inhibitor]: ORAL, Species: MOUSE, Strain/Sex: STRAIN-A/FEMALE, Target Tissue: Type of Lesion: LUNG: ADENOMA, Dose [Carcinogen]: 10 UMOL IN 0.1 ML SALINE, Promoter: NONE USED): 100%, 85%, 15%, not significant | tumour outcome (control, treated, inhibition, significance) (Carcinogen: 4-(METHYLNITROSAMINO)-1-(3-PYRIDYL)-1-BUTANONE, 64091-91-4, 15 PPM IN DIET FOR 3 WK BEGINNING 2 WK PRIOR TO CARCINOGEN DOSE (STUDY DURATION: 18 WK), Route [Inhibitor]: ORAL, Species: MOUSE, Strain/Sex: STRAIN-A/FEMALE, Target Tissue: Type of Lesion: LUNG: TUMOR, Dose [Carcinogen]: 10 UMOL IN 0.1 ML SALINE ONCE, Promoter: NONE USED): 100%, 80%, 20%, not significant | tumour outcome (control, treated, inhibition, significance) (Carcinogen: 4-(METHYLNITROSAMINO)-1-(3-PYRIDYL)-1-BUTANONE, 64091-91-4, 15 PPM IN DIET FOR 15 WK BEGINNING 1 WK POST CARCINOGEN DOSE (STUDY DURATION: 18 WK), Route [Inhibitor]: ORAL, Species: MOUSE, Strain/Sex: STRAIN-A/FEMALE, Target Tissue: Type of Lesion: LUNG: TUMOR, Dose [Carcinogen]: 10 UMOL IN 0.1 ML SALINE ONCE, Promoter: NONE USED): 100%, 96%, 4%, not significant | tumour outcome (control, treated, inhibition, significance) (Carcinogen: 7,12-DIMETHYLBENZ[A]ANTHRACENE, 57-97-6, 2.5 PPM (AS SELENIUM) IN DIET BEGINNING 2 WK PRIOR TO CARCINOGEN DOSE AND CONTINUING FOR DURATION OF STUDY (STUDY DUR, Route [Inhibitor]: ORAL, Species: RAT, Strain/Sex: SPRAGUE-DAWLEY/FEMALE, Target Tissue: Type of Lesion: MAMMARY GLAND: ADENOCARCINOMA, Dose [Carcinogen]: 10 MG ONCE AT 55 D OF AGE, Promoter: NONE USED): 88%, 72%, 18%, not significant | tumour outcome (control, treated, inhibition, significance) (Carcinogen: 7,12-DIMETHYLBENZ[A]ANTHRACENE, 57-97-6, 5 PPM (AS SELENIUM) IN DIET BEGINNING 1 WK POST CARCINOGEN DOSE AND CONTINUING FOR 25 WK (STUDY DURATION: 25 WK), Route [Inhibitor]: ORAL, Species: RAT, Strain/Sex: SPRAGUE-DAWLEY/FEMALE, Target Tissue: Type of Lesion: MAMMARY GLAND: ADENOCARCINOMA, Dose [Carcinogen]: 10 MG ONCE AT 55 D OF AGE, Promoter: NONE USED): 22/25 (88%), 17/25 (68%), 23%, not significant
